Laboratory results taken from patent publication US20090036363A1, “Peptides as cell penetrating carriers” (priority 2004, published 2009).
Ends that are not written are not given here.

Tests used:
Format in all cases: cell-based, human
HeLa cells [1] = assay: Peptides toxicity assay (MTT assay), HeLa viability and proliferation; conditions: for cytotoxicity (result in words): MTT staining, 24 h incubation with HeLa cells, concentrations up to 1000 μM (FIG. 3A, 3B)
Experimental: (§1) HeLa viability and proliferation in the presence of peptides was tested using a 3-(4,5-dimethylthiazol-2-yl)-2,5-diphenyltetrazolium bromide (MTT) assay.
(§2) (cf. “MTT-cell proliferation assay” Cell Biology: A Laboratory Handbook, Academic Press, 1998, Second Ed. vol.1; Y. Liu et al., “Mechanism of cellular 3-(4,5-dimethylthiazol-2-yl)-2,5-diphenyltetrazolium bromide (MTT) reduction”, J. Neurochem. 1997 vol. 69 pp. 581-93).
(§3) For each assay 7×10^3 cells/cm^2 were seeded on a 96-well plate (Nange Nunc) (100 μl/hole) and cultured for 24 h. In order to avoid saturation in cell growth after 24 h of peptide incubation, 7×10^3 cells/cm^2 were used in the proliferation measurement (instead of 21.4×10^3 cells/cm^2 seeded in previous experiments). After complete adhesion to the plate, the culture medium was discarded. Peptides were added at growing concentrations of 50, 100, 500, and 1000 μM. The cells were incubated for 3 h or 24 h at 37° C. under 5% CO2 atmosphere. MTT was added 2 h before the final incubation time, i.e., after 1 h for the 3 h incubation time and after 22 h for the 24 h incubation time at a final concentration per hole of 0.5 mg/ml. The cells with peptide and MTT were incubated for a further 2 h and then the medium was discarded by aspiration. Isopropanol was added to dissolve formazan, a dark blue coloured crystal observed in the wells. Absorbance was measured at λ=570 nm, 30 min after the addition of isopropanol. The cell viability was expressed as a percent ratio of cells treated with peptide against cells untreated used as control.

[2] = as above; conditions: human, HeLa cells, MTT, 24 h incubation, read-out: cell viability; for viability at 24 h, 50 µM: peptide at 50 μM (FIG. 3B); for viability at 24 h, 500 µM: peptide at 500 μM (FIG. 3B)
Experimental: as §1, §2, §3

HeLa cells [3] = assay: Microplate fluorimeter reader assay (cellular uptake of carboxyfluoresceinated peptides)
Experimental: Comparative properties of labelled peptides for translocation through the cell membrane were checked with HeLa human cell line. First, the extent of the uptake of the monomers, dimers and trimers at 50 μM concentration in HeLa cells was quantified using a fluorescence microplate reader assay. A dose-response analysis was then undertaken, incubating HeLa cells with the peptides at different concentrations. The cellular uptake of the new peptides was also studied by confocal laser scanning microscopy (CLSM).
HeLa cells were obtained from ATCC. They were maintained in DMEM ([…]) culture medium (Biological Industries) containing 10% Fetal Calf Serum (FCS), 2 mM glutamine, 50 u/ml penicillin and […] streptomycin. For confocal microscopy experiments, exponentially growing HeLa cells were detached from the culture flasks using a trypsin-0.25% EDTA solution and the cell suspension was seeded at a concentration of 21.4×10^3 cells/cm^2 onto glass coverslips or onto 8-well Lab-Teck™ chambered coverglass or on 96-well plate (Nalge Nunc International). Experiments were carried out 24 h later, when the confluence was about 60-70%. The carboxyfluoresceinated compounds were dissolved in PBS and sterilized with 0.22 μm filters (Millex-GV, PVDF, Durapore, Millipore). The peptides and 5(6)-carboxyfluorescein stock solutions were diluted in the cell culture medium. Non-adherent cells were washed away and attached cells were incubated at 37° C. in CO2 atmosphere in DMEM medium with a known concentration of peptides for 3 h.
For each assay, 21.4×10^3 cells/cm^2 were seeded and cultured for 24 h. After complete adhesion to the plate, the culture medium was changed. […] The measurement of fluorescence emitted was carried out after 30 min incubation with lysis buffer in a FL600 Microplate Fluorescence Reader (Bio-Tek). Fluorescence was measured at a λexcitation=485/20 nm and a λemission=530/25 nm. A triplicate of each peptide or carboxyfluorescein concentration was performed and the fluorescence emitted for the blanks (cells with culture medium and without peptides) was subtracted. […]

Molecule	concentration at which cytotoxic (HeLa cells [1]) [µM]	cytotoxicity (result in words) (HeLa cells [1])	viability at 24 h, 50 µM [2] [%]	viability at 24 h, 500 µM [2] [%]	other results
CC[C@H](C)[C@H](NC(=O)[C@H](CCCCN)NC(=O)[C@@H](NC(=O)[C@H](CCC(N)=O)NC(=O)[C@@H](N)CCCNC(=N)N)[C@@H](C)CC)C(=O)N[C@@H](Cc1c[nH]c2ccccc12)C(=O)N[C@@H](Cc1ccccc1)C(=O)N[C@@H](CCC(N)=O)C(=O)N[C@@H](CC(N)=O)C(=O)N[C@@H](CCCNC(=N)N)C(=O)N[C@@H](CCCNC(=N)N)C(=O)N[C@@H](CCSC)C(=O)N[C@@H](CCCCN)C(=O)N[C@@H](Cc1c[nH]c2ccccc12)C(=O)N[C@@H](CCCCN)C(=O)N[C@@H](CCCCN)C(N)=O [Antp, (Arg-Gln-Ile-Lys-Ile-Trp-Phe-Gln-Asn-Arg-Arg-Met-Lys-Trp-Lys-Lys)-NH2]	50	–	–	–	–
CC[C@H](C)[C@H](NC(=O)[C@H](CCCCN)NC(=O)[C@@H](NC(=O)[C@H](CCC(N)=O)NC(=O)[C@H](CCCNC(=N)N)NC(=O)c1ccc2c(c1)C(=O)OC21c2ccc(O)cc2Oc2cc(O)ccc21)[C@@H](C)CC)C(=O)N[C@@H](Cc1c[nH]c2ccccc12)C(=O)N[C@@H](Cc1ccccc1)C(=O)N[C@@H](CCC(N)=O)C(=O)N[C@@H](CC(N)=O)C(=O)N[C@@H](CCCNC(=N)N)C(=O)N[C@@H](CCCNC(=N)N)C(=O)N[C@@H](CCSC)C(=O)N[C@@H](CCCCN)C(=O)N[C@@H](Cc1c[nH]c2ccccc12)C(=O)N[C@@H](CCCCN)C(=O)N[C@@H](CCCCN)C(N)=O [CF-Antp-NH2]	–	cytotoxic at relatively low concentrations	75	11	–
N=C(N)NCCC[C@H](NC(=O)[C@H](CCCNC(=N)N)NC(=O)[C@H](CCCNC(=N)N)NC(=O)[C@H](CCC(N)=O)NC(=O)[C@H](CCCNC(=N)N)NC(=O)[C@H](CCCNC(=N)N)NC(=O)[C@H](CCCCN)NC(=O)[C@H](CCCCN)NC(=O)[C@H](CCCNC(=N)N)NC(=O)c1ccc2c(c1)C(=O)OC21c2ccc(O)cc2Oc2cc(O)ccc21)C(N)=O [CF-Tat-NH2]	–	cytotoxic at relatively low concentrations	64	40	–
(Arg-Lys-Lys-Arg-Arg-Gln-Arg-Arg-Arg)-NH2 (RKKRRQRRR-NH2) [Tat]	50	–	–	–	–
CF-(Val-Arg-Leu-Pro-Pro-Pro)3	–	–	–	–	fluorescence emitted (uptake) compared with the other CF-(Val-X-Leu-Pro-Pro-Pro)n peptides (HeLa cells [3]; HeLa cells incubated 3 h at 50 μM, X=Arg and His, n=1-3 (FIG. 2A)): higher fluorescence intensity; degree of internalization measured against CF-Antp-NH2 (HeLa cells [3]; HeLa cells, relative to CF-Antp-NH2): 20 times lower; degree of internalization measured against CF-Tat-NH2 (HeLa cells [3]; HeLa cells, relative to CF-Tat-NH2): 15 times lower
